Tests used:
β-PDGFR [1] = biological target: T1, β-PDGFR (Homo sapiens, UniProt P09619); assay: MG63 phosphorylation assay (endogenous β-PDGFR phosphorylation, PDGF-BB stimulation with human plasma); format: cell-based; set-up: This assay is for measuring endogenous β-PDGFR phosphorylation in MG63 cells; endogenous in cells; host or cells: MG63 human osteosarcoma cells (ATCC); settings: MG63 human osteosarcoma cells; PDGF-BB stimulation in presence of 45% human plasma; PDGF receptor phosphorylation; read-out: MG63 w/human plasma IC50
Text: The MG63 cell line is a human osteosarcoma tumor cell line available from the ATCC. This assay is for measuring endogenous β-PDGFR phosphorylation in MG63 cells. The assay conditions are the same as those described at for HR5 cell, except that PDGF-BB stimulation is provided in the presence or absence of 45% human plasma.

β-PDGFR [2] = biological target: T1, β-PDGFR; assay: HR5 phosphorylation assay (CHO cells overexpressing human β-PDGFR, PDGF BB stimulation); format: cell-based; set-up: host or cells: CHO cells (HR5 line); settings: 8 nM PDGF BB, PDGF receptor phosphorylation
Experimental: • (1) HR5 Phosphorylation Assay
The HR5 cell line is a cell line of CHO cells engineered to overexpress human β-PDGFR, which cell line is available from the ATCC. The expression level of β-PDGFR in HR5 cells is around 5×10^4 receptor per cell. For the phosphorylation assay according to the invention, HR5 cells were grown to confluency in 96-well microtiter plates under standard tissue culture conditions, followed by serum-starvation for 16 hours. Quiescent cells were incubated at 37° C. without or with increasing concentrations of the test compound (0.01-30 uM) for 30 minutes followed by the addition of 8 nM PDGF BB for 10 minutes. Cells were lysed in 100 mM Tris, pH 7.5, 750 mM NaCl, 0.5% Triton X-100, 10 mM sodium pyrophosphate, 50 mM NaF, 10 ug/ml aprotinin, 10 ug/ml leupeptin, 1 mM phenylmethylsulfonyl fluoride, 1 mM sodium vanadate, and the lysate was cleared by centrifugation at 15,000× g for 5 minutes. Clarified lysates were transferred into a second microtiter plate in which the wells were previously coated with 500 ng/well of 1B5B11 anti-β-PDGFR mAb, and then incubated for two hours at room temperature. […] Wells were washed prior to adding ABTS (Sigma), and the rate of substrate formation was monitored at 650 nm.

T1 sequence (P09619 33-1106): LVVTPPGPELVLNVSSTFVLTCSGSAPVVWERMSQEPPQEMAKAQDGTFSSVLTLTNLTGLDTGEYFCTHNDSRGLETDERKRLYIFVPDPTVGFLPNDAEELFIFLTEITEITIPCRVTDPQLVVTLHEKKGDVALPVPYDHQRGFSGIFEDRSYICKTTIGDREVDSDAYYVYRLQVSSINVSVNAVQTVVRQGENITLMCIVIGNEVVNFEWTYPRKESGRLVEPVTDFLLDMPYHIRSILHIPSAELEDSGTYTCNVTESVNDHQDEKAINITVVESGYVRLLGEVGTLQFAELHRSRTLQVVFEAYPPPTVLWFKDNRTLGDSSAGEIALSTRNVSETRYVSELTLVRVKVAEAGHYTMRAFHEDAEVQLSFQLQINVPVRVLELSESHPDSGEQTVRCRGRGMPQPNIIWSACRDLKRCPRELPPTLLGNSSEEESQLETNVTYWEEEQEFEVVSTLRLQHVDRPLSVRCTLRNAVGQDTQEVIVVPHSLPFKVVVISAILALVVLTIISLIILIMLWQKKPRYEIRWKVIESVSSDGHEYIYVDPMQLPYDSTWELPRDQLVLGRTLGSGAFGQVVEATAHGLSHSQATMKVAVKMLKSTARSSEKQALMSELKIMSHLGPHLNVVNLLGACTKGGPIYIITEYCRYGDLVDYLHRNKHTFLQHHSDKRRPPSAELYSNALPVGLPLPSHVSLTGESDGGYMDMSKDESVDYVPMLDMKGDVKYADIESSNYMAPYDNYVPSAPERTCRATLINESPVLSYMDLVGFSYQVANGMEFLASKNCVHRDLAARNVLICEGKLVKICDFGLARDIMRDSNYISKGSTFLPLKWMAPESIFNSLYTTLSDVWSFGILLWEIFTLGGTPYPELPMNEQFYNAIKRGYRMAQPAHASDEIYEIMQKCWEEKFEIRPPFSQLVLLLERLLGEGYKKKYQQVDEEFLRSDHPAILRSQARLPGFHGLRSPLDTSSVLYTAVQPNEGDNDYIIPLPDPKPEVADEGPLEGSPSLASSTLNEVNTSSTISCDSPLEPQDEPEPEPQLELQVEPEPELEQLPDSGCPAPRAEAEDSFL

IC50 (β-PDGFR [1]): 134 nM
IC50 (β-PDGFR [2]): 60 nM
SMILES: COc1cc2c(N3CCN(C(=O)Nc4ccc(OC(C)C)cc4)CC3)c(C#N)cnc2cc1OCCCN1CCCCC1 [Example 1, {4-[3-cyano-6-methoxy-7-(3-pipetidylpropoxy)quinolin-4-yl)piperazinyl}-N-[4-(methylethoxy)phenyl]carboxamide]

Reference: patent US6960580B2, “Nitrogenous heterocyclic substituted quinoline compounds” (Millennium Pharmaceuticals, Inc., priority 2001, dated 2005)
